Experiments:
[1] = biological target: T1, BZω3 receptor (Rattus norvegicus, UniProt P16257); assay: BZω3 (peripheral) benzodiazepine receptor binding assay, [3H] 4'-chlorodiazepam (Ro 5-4864); conditions: rat kidney membrane, [3H] Ro 5-4864 0.5 nM, 150 minutes at 0° C.; read-out: ω3 IC50
T1 construct: from tissue; host or cells: rat (Wistar) kidney membrane fraction
Procedure: Experiment 1: Central (ω1,ω2) and Peripheral (ω3) Benzodiazepine Receptor Binding Assays
BZω1 and BZω2 receptor binding assays and the preparation of receptor membrane fractions therefor were carried out according to the method of Stephens, D. N. et al. [cf., J. Pharmacol. Exp. Ther., 253, 334-343 (1990)], and BZω3 receptor binding assay and the preparation of receptor membrane fraction therefor were done according to the method of Schoemaker, H. [cf, J. Pharmacol. Exp. Ther., 225, 61-69 (1983)] each with slight modification.
Receptor membrane fractions for ω1, ω2 and ω3 were prepared from the cerebellum (ω1), spinal cord (ω2) or kidney (ω3) in 7-8 week old male rats of Wistar strain, respectively, by the procedure described below.
After the cerebellum or spinal cord was homogenized with 20 volumes of ice-cold 50 mM Tris-citrate buffer (pH 7.1), the homogenate was centrifuged for 15 minutes at 40,000 g. The pellet obtained was washed 4 times by the same procedure, and frozen and stored for 24 hours at −60° C. The resulting pellet, after being thawed, washed with the buffer and centrifuged, was suspended in the buffer I for the binding assay (50 mM Tris-HCl buffer containing 120 mM NaCl, 5 mM KCl, 2 mM CaCl2 and 1 mM MgCl2; pH 7.4) and the suspension thus obtained (containing 1 g wet tissue/40 ml) was used for the BZω1 and BZω2receptor binding assays. On the other hand, the kidney was homogenized with 20 volumes of the ice-cold buffer II for the binding assay (50 mM Na-K phosphate buffer containing 100 mM NaCl; pH 7.4), and the mixture was filtered through 4 sheets of gauze, and centrifuged for 20 minutes at 40,000 g. The pellet obtained was suspended in the buffer II and the suspension (containing 1 g wet tissue/100 ml) was used for the binding assay as BZω3 receptor membrane source.
[^3H] Flumazenil (Ro 15-1788) (final concentration: 0.3 nM for ω1, and 1 nM for ω2) and flunitrazepam (final concentration: 10 μM) were used for the BZω1 or BZω2 receptor binding assays as the isotope-labeled and unlabeled ligands, respectively. For the BZω3 receptor binding assay, [^3H] 4′-chlorodiazepam (7-chloro-1,3-dihydro-1-methyl-5-(4-chlorophenyl)-2H-1,4-diazepin-2-one) (Ro 5-4864) (final concentration: 0.5 nM) and diazepam (final concentration: 100 μM) were used as the isotope-labeled and unlabeled ligands, respectively. Incubation was performed for 30 minutes at 37° C. in the BZω1 or BZω2 receptor binding assays, and for 150 minutes at 0° C. in the BZω3 receptor binding assay. The BZω1 or BZω2 receptor binding assays were carried out in the presence of bicuculline (final concentration: 100 μM).
The binding assay was performed by the following procedure. After adding each test compound at certain known concentrations, a [^3H] ligand, and the buffer I or II to each test tube, each assay was started by addition of membrane preparation (total volume of 1 ml). After incubation, the assay was terminated by filtration with suction through a Whatman GF/B glass fiber filter using a cell harvester (Brandel, USA). The filters were rapidly washed 3 times with 5 ml of ice-cold 50 mM Tris-HCl buffer (pH 7.7) for ω1 and ω2, or the buffer II for ω3, and transferred to scintillation vials containing 10 ml liquid scintillation cocktail (ACS-II, Amersham, USA). After being allowed to stand for a specific period, retained radioactivity was counted by a liquid scintillation spectrometer. Specific binding of [^3H] ligands was calculated as the difference between amounts of radioactivity bound in the presence and absence of excess unlabeled ligands. The concentration of the test compounds causing 50% inhibition of specific binding of the [3H] ligand (IC50) was determined by probit analysis.

| SMILES | IC50 [1] [nM] | melting point [°C] |
| --- | --- | --- |
| CCN(Cc1ccccc1)C(=O)Cn1c(=O)n(C)c2nc(-c3ccccc3)ncc21 [Example 54] | 0.83 | 112 to 115 |
| CCN(C(=O)Cn1c(=O)n(C)c2nc(-c3cccs3)ncc21)c1ccccc1 [Example 39] | 1.3 | 236 to 238 |
| CN(Cc1ccc(F)cc1)C(=O)Cn1c(=O)n(C)c2nc(-c3ccccc3)ncc21 [Example 69, N-(4-fluorobenzyl)-8,9-dihydro-9-methyl-N-methyl-8-oxo-2-phenyl-7H-purin-7-acetamide] | 0.55 | – |
| CCN(C(=O)Cn1c(=O)[nH]c2nc(-c3ccccc3)ncc21)c1ccccc1 [Example 9] | – | 281 to 284 |
| CCN(C(=O)Cn1c(=O)n(C)c2nc(-c3cccc(Cl)c3)ncc21)c1ccccc1 [Example 10] | 1 | 195 to 196 |
| CCCCN(CCCC)C(=O)Cn1c(=O)n(C)c2nc(-c3ccccc3)ncc21 [Example 63] | – | 138 to 139 |
| CCCN(C(=O)Cn1c(=O)n(C)c2nc(-c3ccccc3)ncc21)c1ccccc1 [Example 60] | – | 221 to 223 |
| CCN(Cc1ccccc1)C(=O)Cn1c(=O)n(C)c2nc(-c3ccc(F)cc3)ncc21 [Example 56] | 1.4 | 155 to 157 |
| CCN(CC)C(=O)Cn1c(=O)n(C)c2nc(-c3ccccc3)ncc21 [Example 19] | – | 207 to 209 |
| CCN(C(=O)Cn1c(=O)n(C)c2nc(-c3ccc(Cl)cc3)ncc21)c1ccccc1 [Example 11] | – | 174 to 175 |
| CN(Cc1ccccc1)C(=O)Cn1c(=O)n(C)c2nc(-c3ccc(Cl)cc3)ncc21 [Example 49] | 1.4 | 210 to 211 |
| CCCCN(C(=O)Cn1c(=O)n(C)c2nc(-c3ccccc3)ncc21)c1ccccc1 [Example 62] | – | 207 to 209 |
| CCN(C(=O)Cn1c(=O)n(C)c2nc(-c3cccnc3)ncc21)c1ccccc1 [Example 38] | – | 195 to 196 |
| CCCN(CCC)C(=O)Cn1c(=O)n(C)c2nc(-c3ccccc3)ncc21 [Example 26] | 2.3 | 133 to 134 |
| CCCN(CCC)C(=O)Cn1c(=O)[nH]c2cnc(-c3ccc(F)cc3)nc21 [Example 81] | 5 | 213 to 215 |
| CCN(C(=O)Cn1c(=O)n(C)c2nc(-c3ccc(OC)cc3)ncc21)c1ccccc1 [Example 13] | 2.9 | 179 to 181 |

| SMILES | IC50 [1] [nM] | melting point [°C] |
| --- | --- | --- |
| CN(Cc1ccccc1)C(=O)Cn1c(=O)n(C)c2nc(-c3ccccc3)ncc21 [Example 48, N-benzyl-8,9-dihydro-9-methyl-N-methyl-8-oxo-2-phenyl-7H-purin-7-acetamide] | 0.68 | – |
| CCCn1c(=O)n(CC(=O)N(CC)c2ccccc2)c2cnc(-c3ccccc3)nc21 [Example 17] | – | 138 to 139 |
| CCN(C(=O)Cn1c(=O)n(C)c2nc(-c3ccccc3)nc(-c3ccccc3)c21)c1ccccc1 [Example 41] | – | 185 to 187 |
| CCN(C(=O)Cn1c(=O)n(CC)c2nc(-c3ccccc3)ncc21)c1ccccc1 [Example 16] | – | 165 to 167 |
| CCCN(C(=O)Cn1c(=O)[nH]c2cnc(-c3ccccc3)nc21)c1ccccc1 [Example 96] | – | 258 to 260 |
| CCCN(C(=O)Cn1c(=O)n(CC)c2nc(-c3ccccc3)ncc21)c1ccccc1 [Example 61] | – | 168 to 170 |
| CCn1c(=O)n(CC(=O)N(C)c2ccccc2)c2cnc(-c3ccccc3)nc21 [Example 8] | – | 160 to 161 |
| CCCN(CC)C(=O)Cn1c(=O)n(C)c2nc(-c3ccccc3)ncc21 [Example 34] | – | 150 to 151 |
| CCN(Cc1ccc(Cl)cc1)C(=O)Cn1c(=O)n(C)c2nc(-c3ccccc3)ncc21 [Example 77] | – | 198 to 199 |
| CN(C(=O)Cn1c(=O)[nH]c2cnc(-c3cccnc3)nc21)c1ccccc1 [Example 84] | – | 268 to 270 |
| CN(C)C(=O)Cn1c(=O)[nH]c2cnc(-c3ccccc3)nc21 [Example 86] | – | > 300 |
| CCCN(CCC)C(=O)Cn1c(=O)n(CC)c2nc(-c3ccccc3)ncc21 [Example 33] | – | 134 to 135 |
| CN(C)C(=O)Cn1c(=O)n(C)c2nc(-c3ccccc3)ncc21 [Example 35] | – | 204 to 206 |
| CCCCN(CCCC)C(=O)Cn1c(=O)[nH]c2cnc(-c3ccccc3)nc21 [Example 95] | – | 196 to 198 |
| CCN(CC)C(=O)Cn1c(=O)n(CC)c2nc(-c3ccccc3)ncc21 [Example 25] | – | 148 to 150 |
| CCN(CC)C(=O)Cn1c(=O)[nH]c2cnc(-c3ccccc3)nc21 [Example 85] | – | 222 to 224 |

More lines, now with the values ahead:

| IC50 [1] [nM] | melting point [°C] | SMILES |
| --- | --- | --- |
| 0.85 | – | CCN(Cc1ccccc1)C(=O)Cn1c(=O)n(C)c2cnc(-c3ccccc3)nc21 [Example 146, N-benzyl-N-ethyl-7,8-dihydro-7-methyl-8-oxo-2-phenyl-9H-purin-9-acetamide] |
| 0.97 | 157 to 158 | CCCN(CCC)C(=O)Cn1c(=O)n(C)c2cnc(-c3ccc(OC)cc3)nc21 [Example 114] |
| 1.4 | 234 to 236 | CN(C(=O)Cn1c(=O)[nH]c2cnc(-c3ccccc3)nc21)c1cccc(Cl)c1 [Example 99] |
| – | 129 to 130 | CCCCn1c(=O)n(CC(=O)N(CCC)CCC)c2nc(-c3ccccc3)ncc21 [Example 122] |
| – | 174 to 176 | CCCN(C(=O)Cn1c(=O)n(C)c2cnc(-c3ccccc3)nc21)c1ccccc1 [Example 169] |
| – | 216 to 217 | CN(C(=O)Cn1c(=O)n(C)c2cnc(-c3cccnc3)nc21)c1ccccc1 [Example 171] |
| – | 204 to 206 | CCN(CC)C(=O)Cn1c(=O)n(C)c2cnc(-c3ccccc3)nc21 [Example 124] |
| 0.97 | 140 to 141 | CCCN(CCC)C(=O)Cn1c(=O)n(C)c2cnc(-c3ccc(F)cc3)nc21 [Example 113] |
| – | 198 to 200 | CCN(CC)C(=O)Cn1c(=O)n(CC)c2cnc(-c3ccccc3)nc21 [Example 125] |
| – | 141 to 143 | CCCn1c(=O)n(CC(=O)N(CC)CC)c2nc(-c3ccccc3)ncc21 [Example 126] |
| – | 262 to 264 | CN(C)C(=O)Cn1c(=O)n(C)c2cnc(-c3ccccc3)nc21 [Example 127] |
| – | 135 to 136 | CCCCN(CCCC)C(=O)Cn1c(=O)n(CC)c2cnc(-c3ccccc3)nc21 [Example 135] |
| – | 154 to 155 | CCN(C(=O)Cn1c(=O)n(CC)c2cnc(-c3ccccc3)nc21)c1ccccc1 [Example 167] |
| – | 140 to 142 | CCCn1c(=O)n(CC(=O)N(CC)c2ccccc2)c2nc(-c3ccccc3)ncc21 [Example 168] |
| – | 125 to 127 | CCCN(CCC)C(=O)Cn1c(=O)n(CCC)c2cnc(-c3ccccc3)nc21 [Example 120] |
| 0.35 | – | CCCN(CCC)C(=O)Cn1c(=O)[nH]c2cnc(-c3ccc(Cl)cc3)nc21 [Example 97, 2-(4-chlorophenyl)-7,8-dihydro-8-oxo-N,N-dipropyl-9H-purin-9-acetamide] |
| – | 286 to 287 | CN(C(=O)Cn1c(=O)[nH]c2cnc(-c3ccccc3)nc21)c1ccccc1 [Example 98] |
| – | 192 to 193 | CCCCN(CCCC)C(=O)Cn1c(=O)n(C)c2cnc(-c3ccccc3)nc21 [Example 134] |
| – | 187 to 189 | CCn1c(=O)n(CC(=O)N(C)C)c2nc(-c3ccccc3)ncc21 [Example 128] |
| – | 183 to 185 | CCCn1c(=O)n(CC(=O)N(C)c2ccccc2)c2nc(-c3ccccc3)ncc21 [Example 158] |
